Experimental data taken from patent US20240247030A1, “TARGETED DELIVERY OF TERTIARY AMINE-CONTAINING DRUG SUBSTANCES” (Seagen Inc., priority 2014, published 2024).
Values after ≈ are worked out from the molar mass of the structure shown. Where two headings read alike, the source gives them in different places. *1 amine or outer side, *2 acyl side, *3 side chain or, on linkers, in order; H or OH if unused. Where a SMILES comes first, the peptide text is derived from it. [ ]: non-standard residue; d: D form. The star is where a group is joined. Dolaproine = CO[C@@H]([C@@H]1CCCN1)[C@@H](C)C(=O)O; Hexanoyl(6-maleimido) = O=C1C=CC(=O)N1CCCCCC(=O)*; Dil = CC[C@H](C)[C@H](NC)[C@@H](CC(=O)O)OC; PABC = O=C(OCc1ccc(N[*:1])cc1)[*:2]; Cit = NC(=O)NCCC[C@H](N)C(=O)O; NMeV = CN[C@H](C(=O)O)C(C)C

Columns and labels:
[1] = Pharmacokinetics of radiolabeled antibody or ADC; format: in vivo, rat; settings: 1 mg/kg i.v., radiolabeled non-targeting ADC
Experimental: PK test articles were radiolabeled using the following procedure.
Each test article was dosed once in replicate animals.

HL60/RV MDR+ AML cells = test: In vitro cytotoxicity (CellTiter-Glo, 96 h); format: cell-based; settings: for IC50: Homo sapiens, HL-60, 96 h, read-out: IC50, HL60/RV, MDR+ AML, Table 6, free drug, 96 hours
Experimental: (§1) In vitro assays. Cells cultured in log-phase growth were seeded for 24 h in 96-well plates containing 150 μL RPMI 1640 supplemented with 20% FBS. Serial dilutions of antibody-drug conjugates in cell culture media were prepared at 4× working concentrations; 50 μL of each dilution was added to the 96-well plates. Following addition of ADC, cells were incubated with test articles for 4 d at 37° C. After 96 h, growth inhibition was assessed by CellTiter-Glo™ (Promega, Madison, W1) and luminescence was measured on a plate reader. The IC50 value, determined in triplicate, is defined here as the concentration that results in a 50% reduction in cell growth relative to untreated controls.

Karpas299 ALCL cells = test: In vitro cytotoxicity (CellTiter-Glo, 96 h); format: cell-based; settings: for IC50: Homo sapiens, KARPAS-299, 96 h, read-out: IC50, Karpas299, ALCL, Table 6, free drug, 96 hours
Experimental: as §1

[2] = tested on: L540cy Hodgkin lymphoma cells; test: In vitro cytotoxicity (CellTiter-Glo, 96 h); format: cell-based; settings: for IC50: L540cy, read-out: IC50, L540cy, HL, Table 6, free drug, 96 hours
L428 MDR+ HL cells = test: In vitro cytotoxicity (CellTiter-Glo, 96 h); format: cell-based; settings: for IC50: Homo sapiens, L-428, 96 h, read-out: IC50, L428, MDR+ HL, Table 6, free drug, 96 hours
HL60 AML cells = test: cells; format: cell-based; settings: for IC50: Homo sapiens, HL-60, 96 h, read-out: IC50, HL60, AML, Table 6, free drug, 96 hours
Experimental: as §1

[3] = tested on: Hep3B hepatocellular carcinoma cells; test: In vitro cytotoxicity (CellTiter-Glo, 96 h); format: cell-based; settings: Table 10; cAC10 conjugate, 8 drug units/Ab; antigen-negative cells
Experimental: as §1

DEL/BVR MDR+ ALCL cells = format: cell-based
Experimental: as §1

panel of cell lines = test: In vitro cytotoxicity, statements across a panel of cell lines; format: cell-based
Experimental: as §1

DEL ALCL cells = format: cell-based
[4] = Table 10, cAC10 conjugate, 8 drug units/Ab
[5] = Table 15, cOKT-9 conjugate, 8-drugs/Ab
[6] = Table 7, cAC10 conjugate of the Drug-Linker, 8 D+/Ab, 96 h
[7] = Table 11, cAC10 conjugate, 8-drugs/mAb

With `CC[C@H](C)[C@@H]([C@@H](CC(=O)N1CCC[C@H]1[C@H](OC)[C@@H](C)C(=O)N[C@H](C)[C@@H](O)c1ccccc1)OC)N(C)C(=O)[C@@H](NC(=O)[C@H](C(C)C)[N+](C)(C)Cc1ccc(O[C@@H]2O[C@H](C(=O)O)[C@@H](O)[C@H](O)[C@H]2O)c(NC(=O)CCNC(=O)[C@H](CN)N2C(=O)C=CC2=O)c1)C(C)C` [Compound 8] the “clearance / exposure profile compared with unconjugated antibody (FIG. 12-14)” value [1] was “PK properties identical to that of unmodified antibody through 7 days”.

With `CCCC(=O)O[C@H](C[C@H](C(C)C)N(C)C(=O)[C@@H](NC(=O)[C@H]1CCCCN1C)[C@@H](C)CC)c1nc(C(=O)N[C@@H](Cc2ccccc2)C[C@H](C)C(=O)O)cs1` [Compound 156, (2S,4R)-4-(2-((1R,3R)-1-(butyryloxy)-3-((2S,3S)—N,3-dimethyl-2-((R)-1-methylpiperidine-2-carboxamido)pentanamido)-4-methylpentyl)thiazole-4-carboxamido)-2-methyl-5-phenylpentanoic acid] the IC50 (HL60/RV MDR+ AML cells) was 6 nM, the IC50 (Karpas299 ALCL cells) was 0.02 nM and the IC50 ([2]; 96 h) was 0.1 nM. For the same molecule, the IC50 (L428 MDR+ HL cells) was 0.12 nM and the IC50 (HL60 AML cells) was 0.1 nM.

For `CCCO[C@H](C[C@H](C(C)C)N(C)C(=O)[C@@H](NC(=O)[C@H]1CCCC[N+]1(C)Cc1ccc(O[C@@H]2O[C@H](C(=O)O)[C@@H](O)[C@H](O)[C@H]2O)c(NC(=O)CCNC(=O)[C@H](CN)N2C(=O)C=CC2=O)c1)[C@@H](C)CC)c1nc(C(=O)N[C@@H](Cc2ccccc2)C[C@H](C)C(=O)O)cs1` (stereo partly drawn) [Compound 80, (2R)-1-(3-(3-((S)-3-amino-2-(2,5-dioxo-2,5-dihydro-1H-pyrrol-1-yl)propanamido)propanamido)-4-(((2S,3R,4S,5S,6S)-6-carboxy-3,4,5-trihydroxytetrahydro-2H-pyran-2-yl)oxy)benzyl)-2-(((2S,3S)-1-(((1R,3R)-1-(4-(((2R,4S)-4-carboxy-1-phenylpentan-2-yl)carbamoyl)thiazol-2-yl)-4-methyl-1-propoxypentan-3-yl)(methyl)amino)-3-methyl-1-oxopentan-2-yl)carbamoyl)-1-methylpiperidin-1-ium], the “clearance / exposure profile compared with unconjugated antibody (FIG. 12-14)” value [1] was “cleared from circulation much more rapidly than the unmodified antibody”.

With `CC[C@H](C)[C@H](NC(=O)[C@H]1CCCC[N+]1(C)Cc1ccc(NC(=O)[C@H](C)NC(=O)[C@@H](NC(=O)[C@H](CN)N2C(=O)C=CC2=O)C(C)C)cc1)C(=O)N(C)[C@H](C[C@@H](OC(C)=O)c1nc(C(=O)N[C@@H](Cc2ccccc2)C[C@H](C)C(=O)O)cs1)C(C)C` (stereo partly drawn) [Compound 32, (2R)-2-(((2S,3S)-1-(((1R,3R)-1-acetoxy-1-(4-(((2R,4S)-4-carboxy-1-phenylpentan-2-yl)carbamoyl)thiazol-2-yl)-4-methylpentan-3-yl)(methyl)amino)-3-methyl-1-oxopentan-2-yl)carbamoyl)-1-(4-((S)-2-((S)-2-((S)-3-amino-2-(2,5-dioxo-2,5-dihydro-1H-pyrrol-1-yl)propanamido)-3-methylbutanamido)propanamido)benzyl)-1-methylpiperidin-1-ium] the “IC50, Hep3B, CD30- HCC” value [3] was >1000 ng/mL, the “IC50, L428, MDR+ HL” value (L428 MDR+ HL cells; [4]) was 1 ng/mL and the “IC50, DEL/BVR, MDR+ ALCL” value (DEL/BVR MDR+ ALCL cells; [4]) was 4 ng/mL.

For `CC[C@H](C)[C@@H]([C@@H](CC(=O)N1CCC[C@H]1[C@H](OC)[C@@H](C)C(=O)N[C@@H](Cc1ccccc1)C(=O)O)OC)N(C)C(=O)[C@@H](NC(=O)[C@H](C(C)C)N(C)C(=O)OCc1ccc(NC(=O)[C@H](CCCNC(N)=O)NC(=O)[C@@H](NC(=O)CCCCCN2C(=O)C=CC2=O)C(C)C)cc1)C(C)C` [Compound 193, MC-Val-Cit-PABC-MMAF, reference compound] ({Hexanoyl(6-maleimido)}-V[Cit][PABC][NMeV]V[Dil][Dolaproine]F-OH), the “IC50, HL60/RV, MDR+ AML” value (HL60/RV MDR+ AML cells; [5]) was 15 ng/mL (≈ 0.0113 µM) and the “IC50, HL60, AML” value (HL60 AML cells; [5]) was 33 ng/mL (≈ 0.0248 µM).

For `CC[C@H](C)[C@H](NC(=O)[C@H]1CCCCN1C)C(=O)N(C)[C@H](C[C@@H](OC(=O)CC(C)(C)C)c1nc(C(=O)N[C@@H](Cc2ccccc2)C[C@H](C)C(=O)O)cs1)C(C)C` [Compound 159, (2S,4R)-4-(2-((1R,3R)-3-((2S,3S)—N,3-dimethyl-2-((R)-1-methylpiperidine-2-carboxamido)pentanamido)-1-((3,3-dimethylbutanoyl)oxy)-4-methylpentyl)thiazole-4-carboxamido)-2-methyl-5-phenylpentanoic acid], the “potency loss relative to tubulysin M” value (panel of cell lines; free drug, across the cell lines of Table 6) was 5-47 fold.

With `CC[C@H](C)[C@H](NC(=O)[C@H]1CCCC[N+]1(C)Cc1ccc(NC(=O)[C@H](CCC(=O)O)NC(=O)[C@@H](NC(=O)[C@H](CN)N2C(=O)C=CC2=O)C(C)C)cc1)C(=O)N(C)[C@H](C[C@@H](OC(C)=O)c1nc(C(=O)N[C@@H](Cc2ccccc2)C[C@H](C)C(=O)O)cs1)C(C)C` (stereo partly drawn) [Compound 113, (2R)-2-(((2S,3S)-1-(((1R,3R)-1-acetoxy-1-(4-(((2R,4S)-4-carboxy-1-phenylpentan-2-yl)carbamoyl)thiazol-2-yl)-4-methylpentan-3-yl)(methyl)amino)-3-methyl-1-oxopentan-2-yl)carbamoyl)-1-(4-((S)-2-((S)-2-((S)-3-amino-2-(2,5-dioxo-2,5-dihydro-1H-pyrrol-1-yl)propanamido)-3-methylbutanamido)-4-carboxybutanamido)benzyl)-1-methylpiperidin-1-ium] the “IC50, Hep3B, CD30- HCC” value [3] was >1000 ng/mL, the “IC50, L428, MDR+ HL” value (L428 MDR+ HL cells; [4]) was 0.3 ng/mL and the “IC50, DEL/BVR, MDR+ ALCL” value (DEL/BVR MDR+ ALCL cells; [4]) was 2 ng/mL.

For `CC[C@H](C)[C@H](NC(=O)[C@H]1CCCC[N+]1(C)Cc1ccc(O[C@@H]2O[C@H](C(=O)O)[C@@H](O)[C@H](O)[C@H]2O)c(NC(=O)CCNC(=O)[C@H](CN)N2C(=O)C=CC2=O)c1)C(=O)N(C)[C@H](C[C@@H](OC(C)=O)c1nc(C(=O)N[C@@H](Cc2ccccc2)C[C@H](C)C(=O)O)cs1)C(C)C` (stereo partly shown) [Compound 104], the “IC50, Hep3B, CD30- HCC” value [3] was >1000 ng/mL, the “IC50, Karpas299, ALCL” value (Karpas299 ALCL cells; Table 7, cAC10 (anti-CD30) conjugate of the Drug-Linker, 8 D+/Ab, 96 h) was 0.6 ng/mL and the “IC50, L540cy, HL” value [2, 6] was 4 ng/mL. For the same molecule, the “IC50, L428, MDR+ HL” value (L428 MDR+ HL cells; [6]) was 0.5 ng/mL, the “IC50, L428, MDR+ HL” value (L428 MDR+ HL cells; [4]) was 0.4 ng/mL and the “IC50, DEL, ALCL” value (DEL ALCL cells; [6]) was 2 ng/mL. The “IC50, DEL, ALCL” value (DEL ALCL cells; [7]) was 2 ng/mL, the “IC50, DEL/BVR, MDR+ ALCL” value (DEL/BVR MDR+ ALCL cells; [6]) was 3 ng/mL and the “IC50, DEL/BVR, MDR+ ALCL” value (DEL/BVR MDR+ ALCL cells; [4]) was 4 ng/mL.

Work on `CC[C@H](C)[C@H](NC(=O)[C@H]1CCCCN1C)C(=O)N(C)[C@H](C[C@@H](OC(=O)C(C)C)c1nc(C(=O)N[C@@H](Cc2ccccc2)C[C@H](C)C(=O)O)cs1)C(C)C` [Compound 157, (2S,4R)-4-(2-((1R,3R)-3-((2S,3S)—N,3-dimethyl-2-((R)-1-methylpiperidine-2-carboxamido)pentanamido)-1-(isobutyryloxy)-4-methylpentyl)thiazole-4-carboxamido)-2-methyl-S-phenylpentanoic acid] yielded an IC50 (HL60/RV MDR+ AML cells) of 3 nM, an IC50 (Karpas299 ALCL cells) of 0.011 nM and an IC50 ([2]; 96 h) of 0.04 nM. For the same molecule, the IC50 (L428 MDR+ HL cells) was 0.05 nM and the IC50 (HL60 AML cells) was 0.08 nM.

In the case of `CC[C@H](C)[C@H](NC(=O)[C@H]1CCCCN1C(=O)CCCCCN1C(=O)C=CC1=O)C(=O)N(C)[C@H](C[C@@H](OC)c1nc(C(=O)N[C@@H](Cc2ccccc2)C[C@H](C)C(=O)O)cs1)C(C)C` [Compound 172, (2S,4R)-4-(2-((1R,3R)-3-((2S,3S)-2-((R)-1-(6-(2,5-dioxo-2,5-dihydro-1H-pyrrol-1-yl)hexanoyl)piperidine-2-carboxamido)-N,3-dimethylpentanamido)-1-methoxy-4-methylpentyl)thiazole-4-carboxamido)-2-methyl-5-phenylpentanoic acid], the “IC50, Karpas299, ALCL” value (Karpas299 ALCL cells; Table 11, cAC10 conjugate of the Drug-Linker, 8-drugs/mAb) is reported as >1000 ng/mL, the “IC50, L540cy, HL” value [2, 7] is reported as >1000 ng/mL and the “IC50, DEL, ALCL” value (DEL ALCL cells; [7]) is reported as >1000 ng/mL. For the same molecule, the “cytotoxic activity in words, conjugates on CD30+ lymphoma cell lines” value (panel of cell lines; conjugate of the named Drug Linker or named ADC) was “inactive”.
